SMILES strings stand for the structures. Entries after “also recorded” stand apart in the source; their conditions may differ. Positions of bridges follow the written chain, without caps; N, C: chain ends. Non-standard residues stand in square brackets, D forms with d. Residues, ends and D or L forms follow the SMILES beside them.

What all share (type): cell-based, Influenza A virus A/California/04/2009 (H1N1)
Assay [1] concerns the target full-length H1 HA I463V (Influenza A virus, UniProt C3W5S1, I477V).
In assay [2] the target is full length, membrane-bound H1 HA (Influenza A virus, UniProt C3W5S1).
Assay [3] addresses full-length H1 HA I375F (Influenza A virus, UniProt C3W5S1, I389F).

Turning to `CC(C)C[C@@H]1NC(=O)[C@H](C(C)C)NC(=O)[C@@H](Cc2ccc(O)cc2)NC(=O)CSC[C@@H](C(=O)NCC(N)=O)NC(=O)[C@H](C(C)C)NC(=O)[C@H](Cc2c[nH]c3ccccc23)NC(=O)[C@H](Cc2c[nH]cn2)NC(=O)[C@H]([C@@H](C)O)NC(=O)[C@H](C)NC(=O)[C@H](CC(C)C)NC(=O)[C@H]([C@@H](C)O)NC(=O)CNC(=O)[C@H](Cc2c[nH]cn2)NC(=O)[C@H](CC(=O)O)NC(=O)[C@H](Cc2c[nH]c3ccccc23)NC(=O)[C@H](CCCNC(=N)N)NC(=O)[C@H](Cc2ccccc2)NC1=O` [S5] ({CH2CO}-[dY]VLFRWDHGTLATHWVCG-NH2; thioether N-17), the “Binding of biotinylated S5 to cell-surface H1” value is “not by the I463V substitution” in assay [1] and “hinders binding; also recorded: affected by the I375F substitution” in assay [3]. Moreover, in assay [2], the “Competition with mAb Fi6 staining” value is given as “strongly decreased the staining; also recorded: competed with the binding of mAb Fi6”.

Source of the values: paper PMC9486808 (ACS Chemical Biology, 2022).
